Common to all, as to assay type: physicochemical
A short description of data set [1]: Hydrogelation and gel appearance by visual inspection. Particulars: for Colloidal stability / phase separation of the hydrogel: visual inspection after hydrogel preparation, pH/pD 8.0, 2.0 mM, ambient temperature. As to the method:
All FTIR measurements were collected on samples where a trifluoroacetate (TFA^–) to chloride ion exchange was performed to eliminate signals from the TFA^– carbonyl moiety in the amide I spectral region (Figure S1). FTIR spectra were collected for P0–P5 in D2O at six pD values (3.0, 5.0, 7.0, 8.0, 9.0, and 10.0) (Figures S2–S7). FTIR analysis for P6–P8 was performed at a pD of 8.0 (Figures S8–S10). The bulk of FTIR studies were performed at pD 8.0, as the optimum pH range for hydrogelation is 7–9 for both SgI38–48[28] and P0.
(§1) All samples were prepared in nonstick Eppendorf tubes (Axygen, Inc.). Prior to the final sample preparation (for all FTIR samples and when otherwise stated), the TFA counteranions present in the peptide sample after HPLC purification were exchanged for chloride using the following protocol: lyophilized peptide was dissolved in deionized D2O (1.0 mL). HCl was added at a molar ratio of 13.7:1 HCl:peptide. For the Phe^CN mutants, the sample was divided into two groups and lyophilized. One sample was then redissolved in H2O (to avoid obscuring the O–D stretches in the nitrile region) and the other in D2O (to avoid overlapping of the O-H bending vibrations in the amide I region) to a final concentration of 2.0 mM, unless otherwise specified. All other peptide samples were redissolved in D2O. The exchange of TFA^– to chloride may be verified by a lack of signal at 1672 cm^–1, seen in the IR spectrum for the deuterium-exchanged TFA salt of P3, where the carbonyl signal from TFA is well separated from the amide I carbonyl high frequency stretch at 1684 cm^–1 (Figure S1). On the day of the peptide sample preparation, D2O was placed in an Eppendorf tube, was then used as background when collecting data points (0 h, 48 h, 1 week, etc.), and was assumed to absorb the same amount of H2O over time as the peptide sample prepared on the same day. The concentration of the peptide solutions was verified with the UV–vis absorbance peak at 280 nm using a molar absorptivity of 2560 M^–1 cm^–1 for all sequences (P0–P7). The pH/pD of the samples was then corrected to 8.0 using small volumes of NaOH and HCl (or NaOD and DCl). After attaining the desired pH/pD, samples were incubated at ambient temperature (ca. 22 °C) and followed over 7 days (or as specified) to allow for hydrogelation.

Data set [2] can be described thus: SAXS/WAXS of fibrils, elliptical cylinder model fit. Particulars: for Fibril axis ratio / Fibril cross-sectional area / Fibril minor radius (minor semiaxis): SAXS, elliptical cylinder model fit, day 7 at 21 °C; for Fibril axis ratio / Fibril cross-sectional area / Fibril minor radius (minor semiaxis) / Repeated dimension of broad SAXS peak at q = 0.172 Å^–1: pH 8.0; for Repeated dimension of broad SAXS peak at q = 0.172 Å^–1: 7 days at 21 °C; for Repeat distance of sharp SAXS peak at q = 0.305 Å^–1: after 7 days of incubation at 21 °C. As to the method: Small- and wide-angle X-ray scattering (SAXS/WAXS) measurements were performed on a SAXSLabs Ganesha pinhole instrument (JJ X-ray System Aps) with an X-ray microsource (Xenocs) and a two-dimensional 300k Pilatus detector (Dectris Ltd., Switzerland). The wavelength, λ, used for all scattering experiments was 1.54 Å, and samples were measured at three sample-to-detector distances. All samples (200 μL) were loaded into a 1.5 mm diameter quartz capillary (Hilgenberg GmbH, Malsfeld, Germany), and the time-averaged scattering intensities were analyzed using a python code. The scattering intensity was corrected to an absolute scale by calibration against water. Supramolecular dimensions were extracted from SAXS data by using the SasView software and fitting the scattering curves to an elliptical-cylinder model (www.sasview.org).

The nature of data set [3]: FTIR amide I: β-sheet self-assembly. Particulars: D2O, ambient temperature; for Persistence of the β-sheet structure over time by FTIR: 0 h to 1 week or longer, pH as in the words. Here is the method:
as §1
FT IR was performed with a Bruker Vertex 70 spectrometer with a photovoltaic mercury cadmium telluride (MTC) detector. Before the spectral collection, the MCT detector was cooled with liquid nitrogen. A background spectrum (see hydrogel sample preparation above) was collected (6 μL of H2O or D2O), and the collection chamber was purged for 15 min before 6 μL of sample was loaded in between two CaF2 windows and separated by a 50-μm Teflon spacer in a 25-mm diameter demountable liquid cell (Harrick Scientific). After purging again, the IR spectrum was collected with 512 scans, with a resolution of 2 cm^–1, from 900 cm^–1 to 4000 cm^–1 at time t = 0 h, 24 h, 48 h, and 1 week (and sometimes longer) after sample constitution, processed using OPUS spectroscopy software, and plotted with Origin or KaleidaGraph.

The nature of data set [4]: Oscillatory and flow rheology of hydrogels. Particulars: for Change of storage modulus G′ over one week: 2.0 mM, pH 8.0, 24 h against 1 week at 21 °C; for Recovery of initial G′ within 2 min after strain-induced loss of gel character / Time to complete recovery of the initial G′: after flow curve deformation; for Recovery of initial G′ within 2 min after strain-induced loss of gel character / Time to complete recovery of the initial G′ / Strain above which gel character is lost (G″ > G′) / Strain up to which the gel is linearly viscoelastic / Angular frequency up to which G′ and G″ are frequency-independent: hydrogel after 1 week, 25 °C; for Strain above which gel character is lost (G″ > G′) / Strain up to which the gel is linearly viscoelastic: amplitude sweep 0.01–100% strain; for Slope of viscosity against shear rate (shear thinning): flow curve, hydrogel after 1 week at ambient temperature, measured at 25 °C; for Angular frequency up to which G′ and G″ are frequency-independent: frequency sweep 0.1–100 rad/s. As to the method:
Rheology measurements were performed on an Anton Paar Physica MCR 301 instrument using a CP25-1 (diameter of 25 mm, angle of 1°) cone plate. A water trap was installed to prevent sample evaporation, and then, sample, 150–200 μL, was carefully plated on to the rheometer stage with a tipless 1 mL syringe to minimize gel deformation. Measurements were conducted with a […] gap size at a temperature of 25 °C. All rheological measurements were done at a frequency, ω, of 10 rad/s with data collection every 2 s. Samples were left for 1 h at a steady strain sweep, γ, of 0.5% (within the linear viscoelastic regime for all sequences) for the gel samples to recover a steady state fibril network, as observed by a stabilization in the value of G′. Subsequently, frequency sweep (0.1–100 rad/s), strain sweep (γ = 0.01–100%), and flow curve (0.1–50 s^–1) experiments were conducted. A time experiment in the linear viscoelastic regime (10 rad/s, 0.5%) for a 50 min period after the flow curve was used to estimate the recovery time of the hydrogels.

Another data set is described as follows: Solubility in water. Particulars: P7 and P8 not tested above 1.0 mM at pH 8.

Each structure is given as a SMILES string. Where “and” joins values, the source holds several entries; their conditions need not be identical. Equal values may be shown once. Entries after “also recorded” stand apart in the source; their conditions may differ. Residues, ends and D or L forms follow the SMILES beside them. Where only a bound is given, the exact number is not on record here.

As to `CC[C@H](C)[C@H](NC(=O)[C@H](CO)NC(=O)[C@H](Cc1ccccc1)NC(=O)[C@H](CO)NC(=O)CNC(C)=O)C(=O)N[C@@H](CCC(N)=O)C(=O)N[C@@H](Cc1ccc(O)cc1)C(=O)N[C@H](C(=O)N[C@@H](Cc1ccc(O)cc1)C(=O)N[C@@H](Cc1c[nH]cn1)C(=O)N[C@H](C(=O)N[C@@H](CC(=O)O)C(N)=O)C(C)C)[C@@H](C)O` [P1] (Ac-GSFSIQYTYHVD-NH2), the “Gel robustness as noticed in handling” value in data set [1] (pD 8.0 hydrogels) is “less stable gel than P0, P2 and P3”. Besides, in data set [2] (2.0 mM), the Fibril axis ratio amounted to 2.5, the Fibril cross-sectional area was determined as 17.7 nm^2 and the “Fibril minor radius (minor semiaxis)” value turned out to be 1.5 nm. In addition, in data set [3], the “Persistence of the β-sheet structure over time by FTIR” value is “is lost over time”.

As for `CC[C@H](C)[C@H](NC(=O)[C@H](CO)NC(=O)[C@H](Cc1ccccc1)NC(=O)[C@H](CO)NC(C)=O)C(=O)N[C@@H](CCC(N)=O)C(=O)N[C@@H](Cc1ccc(O)cc1)C(=O)N[C@H](C(=O)N[C@@H](Cc1ccc(O)cc1)C(=O)N[C@@H](Cc1c[nH]cn1)C(=O)N[C@H](C(=O)N[C@@H](CC(=O)O)C(N)=O)C(C)C)[C@@H](C)O` [P2] (Ac-SFSIQYTYHVD-NH2), in data set [2] (2.0 mM), the “Repeated dimension of broad SAXS peak at q = 0.172 Å^–1” value was found to be 3.7 nm, the Fibril axis ratio was 3.5, the Fibril cross-sectional area worked out at 35.6 nm^2 and the “Fibril minor radius (minor semiaxis)” value was 1.8 nm. Also, in data set [4], the “Change of storage modulus G′ over one week” value is given as “modestly increases”, the “Recovery of initial G′ within 2 min after strain-induced loss of gel character” value is “ca. 75%”, the “Time to complete recovery of the initial G′” value worked out at 30 min and the “Strain above which gel character is lost (G″ > G′)” value is “above 10 % strain”. Also, in data set [4], the “Strain up to which the gel is linearly viscoelastic” value is “up to 2 % strain”; the “Slope of viscosity against shear rate (shear thinning)” value is “ca. −1.1”; the “Angular frequency up to which G′ and G″ are frequency-independent” value is “up to 20 rad/s”. Besides, the “G′ of P2 relative to P3” value in data set [4] (after 1 week of incubation) was “close to an order of magnitude higher than P3”.

As for `CC[C@H](C)[C@H](NC(=O)[C@H](CO)NC(=O)[C@H](Cc1ccccc1)NC(C)=O)C(=O)N[C@@H](CCC(N)=O)C(=O)N[C@@H](Cc1ccc(O)cc1)C(=O)N[C@H](C(=O)N[C@@H](Cc1ccc(O)cc1)C(=O)N[C@@H](Cc1c[nH]cn1)C(=O)N[C@H](C(=O)N[C@@H](CC(=O)O)C(N)=O)C(C)C)[C@@H](C)O` [P3] (Ac-FSIQYTYHVD-NH2), in data set [2] (2.0 mM), the “Repeated dimension of broad SAXS peak at q = 0.172 Å^–1” value came to 3.7 nm, the Fibril axis ratio turned out to be 3.2, the Fibril cross-sectional area turned out to be 32.6 nm^2 and the “Fibril minor radius (minor semiaxis)” value came out at 1.8 nm. In data set [4], the “Change of storage modulus G′ over one week” value is given as “significantly increases”, the “Recovery of initial G′ within 2 min after strain-induced loss of gel character” value is listed as “ca. 60%”, the “Time to complete recovery of the initial G′” value came out at 45 min and the “Strain above which gel character is lost (G″ > G′)” value is greater than 60 % strain. For the same compound, in data set [4], the “Strain up to which the gel is linearly viscoelastic” value was no more than 10 % strain; the “Slope of viscosity against shear rate (shear thinning)” value is “ca. −1.1”; the “Angular frequency up to which G′ and G″ are frequency-independent” value was “up to 20 rad/s”.

In the case of `CC[C@H](C)[C@H](NC(=O)[C@H](CO)NC(C)=O)C(=O)N[C@@H](CCC(N)=O)C(=O)N[C@@H](Cc1ccc(O)cc1)C(=O)N[C@H](C(=O)N[C@@H](Cc1ccc(O)cc1)C(=O)N[C@@H](Cc1c[nH]cn1)C(=O)N[C@H](C(=O)N[C@@H](CC(=O)O)C(N)=O)C(C)C)[C@@H](C)O` [P4] (Ac-SIQYTYHVD-NH2), the “Colloidal stability / phase separation of the hydrogel” value in data set [1] is “colloidally unstable and undergoes phase separation”. Further, in data set [2] (2.0 mM), the Fibril axis ratio stood at 2.1; the Fibril cross-sectional area was 59.4 nm^2; the “Fibril minor radius (minor semiaxis)” value was 3.0 nm and 3 nm. Moreover, the “Periodic repeat distance from WAXS peak” value in data set [2] (WAXS, q = 1.3 Å^–1 (P0–P3) or 1.05 Å^–1 (P4–P6), 2.0 mM, pH 8.0, 21 °C) came out at 6.0 Å. In addition, the “Repeat distance of sharp SAXS peak at q = 0.305 Å^–1” value in data set [2] was found to be 2.1 nm. In data set [3], the “Persistence of the β-sheet structure over time by FTIR” value is recorded as “sheet structure is lost within 1 week”.

For `CC(=O)N[C@@H](CCC(N)=O)C(=O)N[C@@H](Cc1ccc(O)cc1)C(=O)N[C@H](C(=O)N[C@@H](Cc1ccc(O)cc1)C(=O)N[C@@H](Cc1c[nH]cn1)C(=O)N[C@H](C(=O)N[C@@H](CC(=O)O)C(N)=O)C(C)C)[C@@H](C)O` [P6] (Ac-QYTYHVD-NH2), the “Colloidal stability / phase separation of the hydrogel” value in data set [1] was “colloidally unstable and undergoes phase separation”. Besides, the Hydrogel formation result in data set [1] (visual inspection, peptide in water/D2O, pH/pD 8.0, 2.0 mM (P7 1.0 mM), ambient temperature ca. 22 °C, up to 7 days) was “forms a hydrogel”. Moreover, in data set [2] (2.0 mM), the Fibril axis ratio was 1.9, the Fibril cross-sectional area came to 57.4 nm^2 and the “Fibril minor radius (minor semiaxis)” value was found to be 3.1 nm. In data set [2], the “Repeat distance of sharp SAXS peak at q = 0.305 Å^–1” value stood at 2.1 nm.

As for `CC(=O)N[C@H](C(=O)N[C@@H](Cc1ccc(O)cc1)C(=O)N[C@@H](Cc1c[nH]cn1)C(=O)N[C@H](C(=O)N[C@@H](CC(=O)O)C(N)=O)C(C)C)[C@@H](C)O` [P8] (Ac-TYHVD-NH2), the “Solubility in water (in words)” value in the data set “Solubility in water” was “low solubility”. For the same compound, the “β-Sheet secondary structure (self-assembly) by FTIR amide I” value in data set [3] (pD 8.0, 2.0 mM (P7, P8 and F40FCN 1.0 mM)) is “no sign of a β-sheet secondary structure; also recorded: unstructured”.

The record behind these values is paper PMC11562788, “Insights into the Hierarchical Assembly of a Chemically Diverse Peptide Hydrogel Derived from Human Semenogelin I” (ACS Nano, 2024).
